SMILES strings stand for the structures.

Experimental findings from patent publication US4472424A, “Esters of 2-thenoylmercaptopropionylglycine with substituted hydroxybenzenes, process for their preparation and pharmaceutical compositions containing same” (Sigma-Tau Industrie Farmaceutiche Riunite S.p.A., priority 1981, dated 1984) are described below.

Series [1] in a line: Acute toxicity (LD50, Weil method), e.p. administration in mouse. Conditions: in vivo, ip, Weil method N = 4 K = 4. The source says:
LD50 of the compounds of formula (I) assessed with the Weil method ("Tables for convenient calculation of median effective dose (LD50 or ED 50) and instructions in their use", Biometrics, 249-253, 1952), by e.p. administration in mouse is shown in Table 1.

Series [2] concerns cough-inducing irritation. The experiment in a line: Antitussive activity (citric acid aerosol induced cough). Type of series: in vivo, guinea pig. Conditions: 200 mg/Kg orally, one hour before test; for Number of coughs after treatment: 10 minutes exposure to 10% citric acid aerosol; for % Inhibition of coughs: before vs. after treatment. As for the experimental part:
The cough-inducing irritation was studied in guinea pigs by exposing the experimental animals to an environment wherein a 10% citric acid solution was atomized by an aerosol device kept at a steady pressure with compressed air. The experimental animals were placed in a glass-walled chamber which was connected to an electrical recording apparatus suitable for counting coughs.
The period of exposure to the cough-inducing aerosol was 10 minutes. The experimental animals were subjected to a control test seven days before they were orally administered 200 mg/Kg of the compounds.

A short description of series [3]: Mucolytic activity in vitro (thromboelastograph, Morandini et al.). Details: species or system human. The following applies: 1 ml of a 10% solution of test compound. As for the experimental part:
The tests were carried out in vitro by using the method disclosed by Morandini et al. (Lotta contro 1a tubercolosi 47, n. 4, 1977). A thromboelastograph was used to follow the variations induced by the compounds of general formula (I) and acetylcysteine on the rheological properties of human sputum.

The next series deals with bronchial secretion. The experiment in a line: Expectorant activity (bronchial secretion in anesthetized rabbits, Perry et al.). Type of series: in vivo, rabbit. The following applies: 20 to 40 mg. The method, then:
The tests were carried out on male rabbits, weighing 2-3 Kg, anesthetized with ethyl urethane, by following the method disclosed by Perry et al. (J. Pharm. Exp. Ther. 73, 65, 1941).
Each cannula was connected to a feeding device which delivered a steady flow-rate of pre-heated air (36°-38° C.) at constant humidity (80%). At the lower end of each cannula, a graduated cylinder was fitted, wherein the bronchial secretion was collected. All of the animals breathed spontaneously and consequently they self-regulated the air intake suitable for normal respiration. After an hour following cannula insertion, the animals were administered orally (by stomach tube) the compounds of general formula (I) dissolved in distilled water at doses comprised between 20 and 40 mg. Each dose of drug was administered to 5 animals. The control animals (8) were given water only. The amount of secretion was determined after 1, 2 and 4 hours from administration.

Setting [4] is: 1 hour after oral administration.
Setting [5] is: 2 hours after oral administration.
Where [6] appears, read: 4 hours after oral administration.

Regarding `CCCOC(=O)c1ccc(OC(=O)CNC(=O)C(C)SC(=O)c2cccs2)cc1` (centres unmarked) [(1), propyl p-(2-thenoylmercaptopropionylglyciloxy) benzoate], the LD50 in series [1] came out at 1580 mg/kg. In addition, the “Number of coughs after treatment” value in series [2] was determined as 39 coughs. Also, in series [2], the “% Inhibition of coughs” value is recorded as 37%. Moreover, the “Percentage drop ± s.e. of the tracing versus maximum peak (mucolytic activity index)” value in series [3] (dilution 1/30) is recorded as 75%; in series [3] (dilution 1/60), 60%. The figures for the “Percentage variations ± s.e. of bronchial secretion versus basal values” with bronchial secretion (setting [4]), in the series on bronchial secretion (setting [5]) and with bronchial secretion (setting [6]) were “+0.9 ± 0.05%”, “+2.1 ± 0.01%” and “+3.8 ± 0.06%”, respectively.

For the compound `CC(=O)N[C@@H](CS)C(=O)O` [Acetylcysteine, acetylcysteine, reference compound], the “Percentage drop ± s.e. of the tracing versus maximum peak (mucolytic activity index)” value in series [3] (dilution 1/30) is reported as 75%; in series [3] (dilution 1/60), 22%.

`CCCCOC(=O)c1ccccc1OC(=O)CNC(=O)C(C)SC(=O)c1cccs1` (centres unmarked) [(6), butyl o-(2-thenoylmercaptopropionylglyciloxy) benzoate] displayed an LD50 in series [1] of 1800 mg/kg. Further, the “Number of coughs after treatment” value in series [2] is recorded as 25 coughs. Further, in series [2], the “% Inhibition of coughs” value amounted to 49%. Moreover, the results for the “Percentage drop ± s.e. of the tracing versus maximum peak (mucolytic activity index)” value in series [3] (dilution 1/30) and in series [3] (dilution 1/60) were 75% and 55%, respectively. For the same compound, the “Percentage variations ± s.e. of bronchial secretion versus basal values” in the series on bronchial secretion (setting [4]) was “+0.5 ± 0.04%”; in the series with bronchial secretion (setting [5]), “+1.0 ± 0.06%”; in the series on bronchial secretion (setting [6]), “+1.9 ± 0.04%”.

In turn, `CCCOC(=O)c1ccccc1OC(=O)CNC(=O)C(C)SC(=O)c1cccs1` (centres unmarked) [(5), propyl o-(2-thenoylmercaptopropionylglyciloxy) benzoate] came in with an LD50 in series [1] of 2080 mg/kg. The “Number of coughs after treatment” value in series [2] was determined as 28 coughs. Also, the “% Inhibition of coughs” value in series [2] came to 49%. Moreover, the figures for the “Percentage drop ± s.e. of the tracing versus maximum peak (mucolytic activity index)” value in series [3] (dilution 1/30) and in series [3] (dilution 1/60) were 78% and 57%, respectively. Besides, the entries for the “Percentage variations ± s.e. of bronchial secretion versus basal values” with bronchial secretion (setting [4]), in the series with bronchial secretion (setting [5]) and with bronchial secretion (setting [6]) were “+0.9 ± 0.06%”, “+1.7 ± 0.05%” and “+3.2 ± 0.06%”, respectively.

Take `COC(=O)c1ccccc1OC(=O)CNC(=O)C(C)SC(=O)c1cccs1` (centres unmarked) [(3), methyl o-(2-thenoylmercaptopropionylglyciloxy) benzoate]: in series [1], the LD50 was 1780 mg/kg. For the same compound, the “Number of coughs after treatment” value in series [2] is reported as 31 coughs. In series [2], the “% Inhibition of coughs” value was 49%. Also, the “Percentage drop ± s.e. of the tracing versus maximum peak (mucolytic activity index)” value in series [3] (dilution 1/30) worked out at 85%; in series [3] (dilution 1/60) it was 65%. Moreover, the “Percentage variations ± s.e. of bronchial secretion versus basal values” in the series with bronchial secretion (setting [4]) was “+0.3 ± 0.05%”; with bronchial secretion (setting [5]) it was “+0.9 ± 0.05%”; with bronchial secretion (setting [6]), “+1.4 ± 0.08%”.

In series [1], `CCOC(=O)c1ccccc1OC(=O)CNC(=O)C(C)SC(=O)c1cccs1` (centres unmarked) [(4), ethyl o-(2-thenoylmercaptopropionylglyciloxy) benzoate] registered an LD50 of 2150 mg/kg. In addition, the “Number of coughs after treatment” value in series [2] amounted to 30 coughs. For the same compound, the “% Inhibition of coughs” value in series [2] stood at 52%. Moreover, the “Percentage drop ± s.e. of the tracing versus maximum peak (mucolytic activity index)” value in series [3] (dilution 1/30) turned out to be 82%; in series [3] (dilution 1/60), 60%. Besides, the “Percentage variations ± s.e. of bronchial secretion versus basal values” in the series with bronchial secretion (setting [4]) is recorded as “+0.8 ± 0.03%”; with bronchial secretion (setting [5]) it was “+1.9 ± 0.06%”; in the series on bronchial secretion (setting [6]), “+3.0 ± 0.04%”.

With `CC(=O)Nc1ccc(OC(=O)CNC(=O)C(C)SC(=O)c2cccs2)cc1` (centres unmarked) [(2), p-(2-thenoylmercaptopropionylglyciloxy) acetamido benzene], the LD50 in series [1] came to 1930 mg/kg. Further, in series [2], the “Number of coughs after treatment” value turned out to be 30 coughs. The “% Inhibition of coughs” value in series [2] is listed as 46%. In addition, the entries for the “Percentage drop ± s.e. of the tracing versus maximum peak (mucolytic activity index)” value in series [3] (dilution 1/30) and in series [3] (dilution 1/60) were 86% and 65%, respectively. Further, the figures for the “Percentage variations ± s.e. of bronchial secretion versus basal values” in the series with bronchial secretion (setting [4]), with bronchial secretion (setting [5]) and in the series on bronchial secretion (setting [6]) were “+0.8 ± 0.03%”, “+1.2 ± 0.04%” and “+2.5 ± 0.07%”, respectively.
